Marks after values point to notes of the source that are not given here.
Key:
[1] = Safety and tolerability; type: in vivo, healthy male subjects; settings: for Abdominal pain, number of adverse events / Abdominal pain, number of subjects / Diarrhea, number of adverse events / Diarrhea, number of subjects / Headache, number of adverse events / Headache, number of subjects / Nausea, number of adverse events / Nausea, number of subjects / Number of different TEAEs / Number of subjects with at least one TEAE / Somnolence, number of adverse events / Somnolence, number of subjects / Total number of TEAEs: N = 16
[2] = system: ACKR3/CXCR7; settings: cited from earlier work
[3] = type: in vivo, healthy male subjects
[4] = system: CYP3A4; settings: in vitro, preclinical observation; cited from earlier work
[5] = cited from earlier work
[6] = cited from earlier work; remark: listed apart in the source
[7] = attributed to sequestration by β‐cyclodextrin; cited from earlier work
[8] = Treatment A (ACT‐1004‐1239 alone)
[9] = Treatment B2 (ACT‐1004‐1239 + itraconazole)
[10] = Treatment A: single oral 10 mg ACT‐1004‐1239 alone, fed, geometric mean (95% CI), N = 16
[11] = up to and including a dose of 200 mg

O=C(N[C@H]1CCN(CC2CC2)C[C@@H]1C(=O)NC1(c2ncccn2)CC1)c1cc(-c2ccc(F)cc2F)on1 [ACT‐1004‐1239]
Abdominal pain, number of adverse events [1, 8]: 0 nAEs
Abdominal pain, number of subjects [1, 8]: 0 n (%)
Diarrhea, number of adverse events [1, 8]: 0 nAEs
Diarrhea, number of subjects [1, 8]: 0 n (%)
Headache, number of adverse events [1, 8]: 2 nAEs
Headache, number of subjects [1, 8]: 1 (6.3) n (%)
Nausea, number of adverse events [1, 8]: 2 nAEs
Nausea, number of subjects [1, 8]: 2 (12.5) n (%)
Number of different TEAEs [1, 8]: 3 nAEs
Number of subjects with at least one TEAE [1, 8]: 3 (18.8) n (%)
Somnolence, number of adverse events [1, 8]: 1 nAEs
Somnolence, number of subjects [1, 8]: 1 (6.3) n (%)
Total number of TEAEs [1, 8]: 5 nAEs
Abdominal pain, number of adverse events [1, 9]: 1 nAEs
Abdominal pain, number of subjects [1, 9]: 1 (6.3) n (%)
Diarrhea, number of adverse events [1, 9]: 1 nAEs
Diarrhea, number of subjects [1, 9]: 1 (6.3) n (%)
Headache, number of adverse events [1, 9]: 1 nAEs
Headache, number of subjects [1, 9]: 1 (6.3) n (%)
Nausea, number of adverse events [1, 9]: 0 nAEs
Nausea, number of subjects [1, 9]: 0 n (%)
Number of different TEAEs [1, 9]: 3 nAEs
Number of subjects with at least one TEAE [1, 9]: 3 (18.8) n (%)
Somnolence, number of adverse events [1, 9]: 0 nAEs
Somnolence, number of subjects [1, 9]: 0 n (%)
Total number of TEAEs [1, 9]: 3 nAEs
tolerability ([1]; all treatments, 10 mg ACT‐1004‐1239 in absence and presence of itraconazole): well‐tolerated
overall incidence of subjects with TEAEs ([1]; in each treatment (A and B2)): 18.8%
CXCL12 plasma concentration (target engagement) [2]: dose‐dependent increase
AUC0−t [3, 10]: 300 (257, 352) ng * h/mL
Cmax [3, 10]: 25.6 (21.1, 31.0) ng/mL
AUC0−inf ([3]; Treatment A: single oral 10 mg ACT‐1004‐1239 alone, fed, geometric mean (95% CI), n = 10): 326 (279, 380) ^a ng * h/mL
t max ([3]; Treatment A: single oral 10 mg ACT‐1004‐1239 alone, fed, median (range), N = 16): 2.00 (0.5, 6.0) h
median of differences in t max (90% CI) ([3]; Treatment B2 (with itraconazole) vs Treatment A (alone), Hodges‐Lehmann estimate): 30 min
increase of exposure to ACT‐1004‐1239 with itraconazole versus alone ([3]; concomitant multiple doses 200 mg itraconazole (CYP3A4 inhibition)): up to 2.9 fold
dependency of metabolism on CYP3A4 [4]: 94%
effect of food on exposure [5]: no effect of food
dose dependence of exposure ([5]; dose range 1–200 mg): dose‐proportional
absolute bioavailability ([5]; healthy subjects): 53%
volume of distribution ([5]; healthy subjects): 183 L
QTc liability [5, 11]: without QTc liability
safety and tolerability [5, 11]: safe and well‐tolerated
contribution of elimination via M1 to drug's elimination ([6]; humans, M1 plus A1 and A2): approximately 44%
unchanged drug recovered in excreta ([6]; oral 14C‐labeled ACT‐1004‐1239): 15%

O=C(Nc1ccc(OC(F)(F)Cl)cc1)c1cnc(N2CC[C@@H](O)C2)c(-c2ccn[nH]2)c1 [asciminib]
decrease of exposure when given concomitantly with an itraconazole solution [7]: approximately 50%

From PMC11249824 (Clinical and Translational Science, 2024)
